Among the data in patent US20260285846A1, “REV-ERB AGONISTS FOR TH17-MEDIATED INFLAMMATORY DISORDERS” (UNIVERSITY OF FLORID RESEARCH FOUNDATION, iNCORPORATED, priority 2021, published 2026) are EC50 values, retold here.

Structures are written as SMILES.

For the assay, the target named is REV-ERBα LBD (Homo sapiens, UniProt P20393, DEL324-422). The experiment in a line: biochemical. Conditions: FRET assay; 6xHistag-REV-ERBα LBD with FITC-labeled SMRT corepressor peptide; read-out: REVERBα (Agonism of REV-ERBα, EC50). As for the experimental part: TR-FRET corepressor interaction assay. The time-resolved fluorescence resonance energy transfer (TR-FRET) assay was performed in black low-volume 384-well plates (Greiner). Each well contained 4 nM 6×Histag-REV-ERBα LBD (human; residues 281-614 A324-422) or 6×Histag-REV-ERBα LBD (human; residues 381-579) protein expressed in and purified from Escherichia coli using nickel affinity and size exclusion chromatography; 1 nM LanthaScreen Elite Tb-anti-HIS Antibody (Thermo Fisher Scientific); and 400 nM FITC-labeled peptide derived from the SMRT corepressor ([…]) containing a N-terminal FITC label with a six-carbon linker (Ahx) and an amidated C-terminus for stability (synthesized by LifeTein) in TR-FRET buffer (20 mM potassium phosphate, pH 7.4, 50 mM potassium chloride, 1 mM dithiothreitol, and 0.005% Tween-20). Ligand stocks were prepared via serial dilution in DMSO, added to wells in triplicate, and plates were incubated at 4° C. for 2 h and read using a BioTek Synergy Neo multimode plate reader. The Tb donor was excited at 340 nm; its fluorescence emission was monitored at 495 nm, and the acceptor FITC emission was measured at 520 nm; and the TR-FRET ratio was calculated as the signal at 520 nm divided by the signal at 495 nm. Data were plotted using GraphPad Prism as TR-FRET ratio vs. ligand concentration and fit to sigmoidal dose response curve equation.
REV-ERBα LBD, sequence (P20393 with tags, fused parts or gaps DEL324-422): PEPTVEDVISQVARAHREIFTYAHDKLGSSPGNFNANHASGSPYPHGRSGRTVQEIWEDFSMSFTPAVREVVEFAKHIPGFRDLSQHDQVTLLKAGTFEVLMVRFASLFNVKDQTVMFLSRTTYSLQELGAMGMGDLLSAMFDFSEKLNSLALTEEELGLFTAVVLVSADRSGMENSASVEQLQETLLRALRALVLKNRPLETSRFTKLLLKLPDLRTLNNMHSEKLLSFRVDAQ
REV-ERBα LBD, sequence (Q9Y618 2335-2356 partner limits assumed): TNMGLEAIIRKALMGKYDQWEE
Exemplary compounds of the present disclosure were assayed as described above to assess agonism of REV-ERBα. Results of the FRET assay are shown in Table 2 below (A: EC50<100 nM; B: EC50 100 nM-1000 nM; C: EC50>1000 nM; NT: not tested).
One may read the EC50 as the midpoint of the concentration-response curve. For the compound `CC(C)(C)Cn1cc([C@H](NS(=O)(=O)C2CCC2)C(F)F)c2ccc(-c3cccnc3C(F)(F)F)cc21` [Compound 14, (S)—N-(2,2-difluoro-1-(1-neopentyl-6-(2-(trifluoromethyl)pyridin-3-yl)-1H-indol-3-yl)ethyl)cyclobutanesulfonamide], the EC50 is less than 100 nM. For `Cc1ccccc1-c1ccc2c([C@H](NS(=O)(=O)C3CC3)C(F)F)cn(CC(C)(C)C)c2c1` [Compound 15, (S)—N-(2,2-difluoro-1-(1-neopentyl-6-(o-tolyl)-1H-indol-3-yl)ethyl)cyclopropanesulfonamide] the value was less than 100 nM.

`CC(C)(C)Cn1cc([C@H](NS(=O)(=O)C2CC2)C(F)F)c2cc(F)c(C3=CCOCC3)cc21` [Compound 16, (S)—N-(1-(6-(3,6-dihydro-2H-pyran-4-yl)-5-fluoro-1-neopentyl-1H-indol-3-yl)-2,2-difluoroethyl)cyclopropanesulfonamide]: the EC50 is less than 100 nM. For `CN(C)S(=O)(=O)N[C@@H](c1cn(CC(C)(C)C)c2cc(-c3ccccc3C(F)(F)F)ccc12)C(F)F` [Compound 21] the value was less than 100 nM. For `CC(C)(C)Cn1cc([C@H](NS(=O)(=O)C2CC(F)C2)C(F)F)c2ccc(-c3ccccc3C(F)(F)F)cc21` (stereo partly drawn) [Compound 22, (S)—N-(2,2-difluoro-1-(1-neopentyl-6-(2-(trifluoromethyl)phenyl)-1H-indol-3-yl)ethyl)-3-fluorocyclobutane-1-sulfonamide] the value was less than 100 nM; for `Cc1ccccc1-c1ccc2c([C@H](NS(=O)(=O)C3CC(F)(F)C3)C(F)F)cn(CC(C)(C)C)c2c1` [Compound 30, (S)—N-(2,2-difluoro-1-(1-neopentyl-6-(o-tolyl)-1H-indol-3-yl)ethyl)-3,3-difluorocyclobutane-1-sulfonamide], 100 to 1000 nM. In the case of `CC(C)(C)Cn1cc([C@H](NS(=O)(=O)N2CCC2)C(F)F)c2cc(F)c(-c3ccccc3C(F)(F)F)cc21` [Compound 31, (S)—N-(2,2-difluoro-1-(5-fluoro-1-neopentyl-6-(2-(trifluoromethyl)phenyl)-1H-indol-3-yl)ethyl)azetidine-1-sulfonamide] it was less than 100 nM; in that of `CC(NS(=O)(=O)C1CC1)c1cn(CC(C)(C)C)c2cc(C3CCOC3)c(F)cc12` (stereo not drawn) [Compound 34, N-(1-(5-fluoro-1-neopentyl-6-(tetrahydrofuran-3-yl)-1H-indol-3-yl)ethyl)cyclopropanesulfonamide], less than 100 nM; in that of `CC(NS(=O)(=O)C1CC1)c1cn(CC(C)(C)C)c2cc(C3CCOCC3)c(F)cc12` (stereo not drawn) [Compound 35], less than 100 nM.

As to `Cc1ncccc1-c1cc2c(cc1F)c(C(C)NS(=O)(=O)C1CC1)cn2CC(C)(C)C` (stereo not drawn) [Compound 36, N-(1-(5-fluoro-6-(2-methylpyridin-3-yl)-1-neopentyl-1H-indol-3-yl)ethyl)cyclopropanesulfonamide], the EC50 was less than 100 nM. For `CC(NS(=O)(=O)C1CC1)c1cn(CC(C)(C)C)c2cc(-c3cncc(C#N)c3)c(F)cc12` (stereo not drawn) [Compound 37, N-[1-[6-(5-cyano-3-pyridyl)-1-(2,2-dimethylpropyl)-5-fluoro-indol-3-yl]ethyl]cyclopropanesulfonamide] the value was 100 to 1000 nM; for `CC(C)(C)Cn1cc([C@H](NS(=O)(=O)C2CC2)C(F)F)c2cc(F)c(-c3cccnc3C(F)(F)F)cc21` [Compound 38, (S)—N-(2,2-difluoro-1-(5-fluoro-1-neopentyl-6-(2-(trifluoromethyl)pyridin-3-yl)-1H-indol-3-yl)ethyl)cyclopropanesulfonamide], less than 100 nM; for `CC(C)(C)Cn1cc([C@H](NS(=O)(=O)C2CC2)C(F)F)c2ccc(-c3ncccc3C(F)(F)F)cc21` [Compound 39, (S)—N-(2,2-difluoro-1-(1-neopentyl-6-(3-(trifluoromethyl)pyridin-2-yl)-1H-indol-3-yl)ethyl)cyclopropanesulfonamide], less than 100 nM. For `CC(C)(C)Cn1cc([C@H](NS(=O)(=O)C2CC2)C(F)F)c2ccc(-c3ncccc3C#N)cc21` [Compound 40, (S)—N-(1-(6-(3-cyanopyridin-2-yl)-1-neopentyl-1H-indol-3-yl)-2,2-difluoroethyl)cyclopropanesulfonamide] the value was less than 100 nM; for `CC(C)(C)Cn1cc(C(NS(=O)(=O)C23CC(C2)C3)C(F)F)c2cc(F)c(-c3ccccc3C(F)(F)F)cc21` (stereo not drawn) [Compound 41, N-(2,2-difluoro-1-(5-fluoro-1-neopentyl-6-(2-(trifluoromethyl)phenyl)-1H-indol-3-yl)ethyl)bicyclo[1.1.1]pentane-1-sulfonamide], less than 100 nM. Turning to `CC(C)S(=O)(=O)N[C@@H](c1cn(CC(C)(C)C)c2cc(-c3cccnc3C(F)(F)F)c(F)cc12)C(F)F` [Compound 42, (S)—N-(2,2-difluoro-1-(5-fluoro-1-neopentyl-6-(2-(trifluoromethyl)pyridin-3-yl)-1H-indol-3-yl)ethyl)propane-2-sulfonamide], the EC50 was less than 100 nM. In the case of `CN(C)S(=O)(=O)N[C@@H](c1cn(CC(C)(C)C)c2cc(-c3cccnc3C(F)(F)F)c(F)cc12)C(F)F` [Compound 43] it was less than 100 nM. `[2H]C1([2H])CC(S(=O)(=O)N[C@@H](c2cn(CC(C)(C)C)c3cc(-c4cccnc4C(F)(F)F)c(F)cc23)C(F)F)C1` [Compound 45, (S)—N-(2,2-difluoro-1-(5-fluoro-1-neopentyl-6-(2-(trifluoromethyl)pyridin-3-yl)-1H-indol-3-yl)ethyl)cyclobutane-1-sulfonamide-3,3-d2]: the EC50 is less than 100 nM.

Consider `CC(C)(C)Cn1cc([C@H](NS(=O)(=O)C2CC(F)C2)C(F)F)c2ccc(-c3cccnc3C(F)(F)F)cc21` (stereo partly drawn) [Compound 46, (S)—N-(2,2-difluoro-1-(1-neopentyl-6-(2-(trifluoromethyl)pyridin-3-yl)-1H-indol-3-yl)ethyl)-3-fluorocyclobutane-1-sulfonamide], for which the EC50 is less than 100 nM.

Turning to `CC(C)(C)Cn1cc([C@H](NS(=O)(=O)C2CC2)C(F)F)c2ccc(-c3nccnc3C(F)(F)F)cc21` [Compound 47, (S)—N-(2,2-difluoro-1-(1-neopentyl-6-(3-(trifluoromethyl)pyrazin-2-yl)-1H-indol-3-yl)ethyl)cyclopropanesulfonamide], the EC50 is less than 100 nM. Turning to `CC(C)(C)Cn1cc([C@H](NS(=O)(=O)C2CC2)C(F)F)c2ccc(-c3nccnc3C#N)cc21` [Compound 48, (S)—N-(1-(6-(3-cyanopyrazin-2-yl)-1-neopentyl-1H-indol-3-yl)-2,2-difluoroethyl)cyclopropanesulfonamide], the EC50 fell in the range of 100 to 1000 nM. In the case of `CC(C)(C)Cn1cc([C@H](NS(=O)(=O)C2CC2)C(F)F)c2ccc(-c3cccnc3C#N)cc21` [Compound 49, (S)—N-(1-(6-(2-cyanopyridin-3-yl)-1-neopentyl-1H-indol-3-yl)-2,2-difluoroethyl)cyclopropanesulfonamide] it was less than 100 nM; in that of `CN(C)S(=O)(=O)N[C@@H](c1cn(CC(C)(C)C)c2cc(-c3nccnc3C(F)(F)F)ccc12)C(F)F` [Compound 51], less than 100 nM; in that of `CC(C)(C)Cn1cc([C@H](NS(=O)(=O)C2CC2)C(F)F)c2ccc(-c3c(C#N)ccnc3C(F)(F)F)cc21` [Compound 52, (S)—N-(1-(6-(4-cyano-2-(trifluoromethyl)pyridin-3-yl)-1-neopentyl-1H-indol-3-yl)-2,2-difluoroethyl)cyclopropanesulfonamide], 100 to 1000 nM.
